Test results reported in patent publication US9556169B2, “Compounds and compositions for the treatment of parasitic diseases” (NOVARTIS AG, priority 2012, dated 2017).
Where two headings read alike, the source gives them in different places.

Key:
[1] = system: P. falciparum (NF54 or 3D7 strain); assay: P. falciparum proliferation assay in infected human blood cells (SYBR Green); format: cell-based; conditions: Plasmodium falciparum, Erythrocyte, read-out: EC50 (nM), inhibitory efficacy in delaying P. falciparum proliferation in infected human blood cells
Procedure: Assay for P. falciparum Proliferation in Infected Human Blood Cells
Compounds of the invention can be assayed to measure their capacity to inhibit proliferation of P. falciparum parasitemia in infected red blood cells. This parasite proliferation assay measures the increase in parasite DNA content using a DNA intercalating dye, SYBR Green® (INVITROGEN®) which has a high affinity for double stranded DNA.
NF54 or 3D7 P. falciparum strain is grown in complete culturing media until parasitemia reaches 3% to 8% with O+ human erythrocytes. […] 20 μl of screening media is dispensed into 384 well assay plates. 50 nl of compounds of the invention (in DMSO), including antimalarial controls (mefloquine, pyrimethamine and artemisinin), are then transferred into the assay plates, as well as DMSO alone to serve as a negative control for inhibition. Then 30 μl of a suspension of a NF54 or 3D7 P. falciparum infected erythrocytes in screening media is dispensed into the assay plates such that the final hematocrit is 2.5% with a final parasitemia of 0.3%. The plates are placed in a 37° C. incubator for 72 hours in a low oxygen environment containing 93% N2, 4% CO2, and 3% O2 gas mixture. 10 μl of lysis buffer (saponin, triton-X, EDTA) containing a 10× solution of SYBR Green I® in RPMI media is dispensed into the plates. The plates are lidded and kept at room temperature overnight for the lysis of the infected red blood cells. The fluorescence intensity is measured (excitation 425 nm, emission 530 nm) using the Envision™ system (Perkin Elmer). The percentage inhibition of 50%, EC50, is calculated for each compound.

[2] = system: Plasmodium berghei line expressing luciferase (Pb-luc) sporozoites; assay: Liver stage P. berghei luciferase proliferation assay in CD81-GFP-HepG2 cells; format: cell-based; conditions: values marked * in Table 2, CD81-GFP-HepG2 cells, 48 h, luminescence, read-out: EC50 (nM), P. berghei luciferase Proliferation Assay
Procedure: Liver Stage P. berghei Luciferase Proliferation Assay
CD81-GFP-HepG2 cells (obtained from the lab of Dominique Mazier) were seeded into GNF custom Greiner plates (1536-well, white, TC-treated, solid bottom). A final density of 3000 cells/well was achieved by dispensing 5 ul per well of a 600,000 cells/mL resuspended in Assay Media (AM; phenol-red free DMEM, 2% FBS, 5×PSG) via a MicroFlo (Biotek; 5 ul dispense cassette). The seeded assay plates were incubated overnight at 37° C. in an incubator with 5% CO2. The following day, a 10 nL volume of compound was transferred acoustically (ECHO 525, Labcyte Inc.) to each well in the assay plate. Sporozoite forms of a Plasmodium berghei line expressing luciferase (Pb-luc) were dissected and purified from infected Anopheles stephensi mosquitoes (provided by the NYU insectary) as previously described by Meister et al. (Science, 2011). Purified sporozoites (spz) were stored at 250 spz/uL in chilled PBS supplemented with 3% BSA. 3 uL of Pb-luc spz solution was dispensed to each assay well using a Bottlevalve equipped with a custom, single-tip dispense head (GNF Systems). Assay plates were centrifuged at 330×g for 3 minutes to pellet the spz, then the assay plates were returned to the 37° C. incubator for 48 h. Luciferase signal, which corresponds with parasite proliferation, was detected by adding 2 uL of BrightGlo (Promega) to each well using the MicroFlo (Biotek; 1 ul cassette). Luminescence was immediately measured on an Envision MultiLabel Plate Reader (PerkinElmer).

[3] = infected human erythrocytes, 72 hours, SYBR Green fluorescence

Compound	EC50 [1, 3]	EC50 [2]	EC50 ([1]; 72 h)
CNC(=O)c1ccc(-c2cnn3ccc(C(=O)N(c4ccc(C#N)cc4)C(C)C)cc23)cn1 [Example 146, N-(4-Cyanophenyl)-N-isopropyl-3-(6-(methylcarbamoyl)pyridin-3-yl)pyrazolo[1,5-a]pyridine-5-carboxamide]	45 nM	20 nM	
CNC(=O)c1ccc(-c2cnn3ccc(N(C(=O)c4ccc(C#N)cn4)C4CC4)cc23)cc1 [Example 147, 5-Cyano-N-cyclopropyl-N-(3-(4-(methylcarbamoyl)phenyl)pyrazolo[1,5-a]pyridin-5-yl) picolinamide]	814 nM	151 nM	
CNC(=O)c1ccc(-c2cnn3ccc(C(=O)N(c4ccc(C#N)cn4)C(C)C)cc23)cn1 [Example 148, N-(5-Cyanopyridin-2-yl)-N-isopropyl-3-(6-(methylcarbamoyl)pyridin-3-yl)pyrazolo[1,5-a]pyridine-5-carboxamide]	67 nM	18 nM	
CNC(=O)c1ccc(-c2cnn3ccc(C(=O)N(c4ccc(C#N)c(OC)n4)C4CC4)cc23)cc1 [Example 149, N-(5-Cyano-6-methoxypyridin-2-yl)-N-cyclopropyl-3-(4-(methylcarbamoyl)phenyl)pyrazolo[1,5-a]pyridine-5-carboxamide]	4 nM	1 nM	
CCN(C(=O)c1ccn2ncc(-c3ccc(C(=O)NC)nc3)c2c1)c1ccc(C#N)cn1 [Example 150, N-(5-cyanopyridin-2-yl)-N-ethyl-3-(6-[methylcarbamoyl]pyridin-3-yl)pyrazolo[1,5-a]pyridine-5-carboxamide]	51 nM	19 nM	
CNC(=O)c1ccc(-c2cnn3ccc(C(=O)N(c4ccc(F)cn4)C(C)C)cc23)cc1 [Example 151, N-(5-fluoropyridin-2-yl)-N-isopropyl-3-(4-(methylcarbamoyl)phenyl)pyrazolo[1,5-a]pyridine-5-carboxamide]	67 nM	7 nM	
CNC(=O)c1ccc(-c2cnn3ccc(C(=O)N(c4ccc(C(F)(F)F)cn4)C(C)C)cc23)cn1 [Example 152, N-Isopropyl-3-(6-(methylcarbamoyl)pyridin-3-yl)-N-(5-(trifluoromethyl)pyridin-2-yl)pyrazolo[1,5-a]pyridine-5-carboxamide]	228 nM	182 nM	
CNC(=O)c1ccc(-c2cnn3ccc(C(=O)N(c4ccc(C(F)(F)F)cn4)C(C)C)cc23)cc1 [Example 153, N-Isopropyl-3-(4-(methylcarbamoyl)phenyl)-N-(5-(trifluoromethyl)pyridin-2-yl)pyrazolo[1,5-a]pyridine-5-carboxamide]	88 nM	16 nM	
CNC(=O)c1ccc(-c2cnn3ccc(C(=O)N(c4ccc(C#N)cn4)C(C)C)cc23)nc1 [Example 154, N-(5-cyanopyridin-2-yl)-N-isopropyl-3-(5-(methylcarbamoyl)pyridin-2-yl)pyrazolo[1,5-a]pyridine-5-carboxamide]		36 nM	200 nM
CNC(=O)c1ccc(-c2cnn3ccc(C(=O)N(c4ccc(C#N)cn4)C4CCC4)cc23)nc1 [Example 155, N-(5-Cyanopyridin-2-yl)-N-cyclobutyl-3-(5-(methylcarbamoyl)pyridin-2-yl)pyrazolo[1,5-a]pyridine-5-carboxamide]		21 nM	82 nM
CNC(=O)c1ccc(-c2cnn3ccc(C(=O)N(c4ccc(F)cn4)C(C)C)cc23)cn1 [Example 156, N-(5-fluoropyridin-2-yl)-N-isopropyl-3-(6-(methylcarbamoyl)pyridin-3-yl)pyrazolo[1,5-a]pyridine-5-carboxamide]	210 nM	54 nM	
CCN(C(=O)c1ccn2ncc(-c3ccc(C(=O)NC)nc3)c2c1)c1ccc(C(F)(F)F)cn1 [Example 157, N-ethyl-3-(6-(methylcarbamoyl)pyridin-3-yl)-N-(5-(trifluoromethyl)pyridin-2-yl)pyrazolo[1,5-a]pyridine-5-carboxamide]	91 nM	60 nM	
CCN(C(=O)c1ccn2ncc(-c3ccc(S(C)(=O)=O)cc3)c2c1)c1ccc(C#N)cn1 [Example 158, N-(5-cyanopyridin-2-yl)-N-ethyl-3-(4-(methylsulfonyl)phenyl)pyrazolo[1,5-a]pyridine-5-carboxamide]	111 nM	11 nM	
CCN(C(=O)c1ccn2ncc(-c3ccc(C(=O)NC)nc3)c2c1)c1ccc(F)cn1 [Example 159, N-ethyl-N-(5-fluoropyridin-2-yl)-3-(6-(methylcarbamoyl)pyridin-3-yl)pyrazolo[1,5-a]pyridine-5-carboxamide]	56 nM	43 nM	
CNC(=O)c1ccc(-c2cnn3ccc(C(=O)N(c4ccc(C(F)(F)F)cn4)C4CCC4)cc23)cc1 [Example 160, N-cyclobutyl-3-(4-(methylcarbamoyl)phenyl)-N-(5-(trifluoromethyl)pyridin-2-yl)pyrazolo[1,5-a]pyridine-5-carboxamide]	4 nM	4 nM	
CNC(=O)c1ccc(-c2cnn3ccc(C(=O)N(c4ccc(C(F)(F)F)cn4)C4CCC4)cc23)cn1 [Example 161, N N-cyclobutyl-3-(6-(methylcarbamoyl)pyridin-3-yl)-N-(5-(trifluoromethyl)pyridin-2-yl)pyrazolo[1,5-a]pyridine-5-carboxamide]	68 nM	41 nM	
CCN(C(=O)c1ccn2ncc(-c3ccc(C(=O)NC)cc3)c2c1)c1ccc(C#N)c(OCCO)n1 [Example 162, N-(5-cyano-6-(2-hydroxyethoxyl)pyridin-2-yl)-N-ethyl-3-(4-(methylcarbamoyl)phenyl)pyrazolo[1,5-a]pyridine-5-carboxamide]	9 nM	8 nM	
CNC(=O)c1ccc(-c2cnn3ccc(S(=O)(=O)N(C)c4ccc(C#N)cn4)cc23)cc1 [Example 163, 4-(5-(N-(5-Cyanopyridin-2-yl)-N-methylsulfamoyl)pyrazolo[1,5-a]pyridin-3-yl)-N-methyl benzamide]	4 nM	2 nM	
